Tested on: Caco-2 cells
Test: Transmission electron microscopy of tight junctions
Type: cell-based, human
Conditions: 30 min
Protocol: Cells grown on culture inserts were treated with 10 μM PN159 peptide for 30 min and fixed immediately after treatment or after a 1-day recovery. Cells were briefly washed with phosphate-buffered saline (PBS) and fixed with 3% paraformaldehyde containing 0.5% glutaraldehyde in cacodylate buffer (pH 7.4) for 30 min at 4 °C. After washing with the buffer several times, cells were postfixed in 1% OsO4 for 20 min. Following a rinse with distilled water, the cells were block stained with 1% uranyl acetate in 50% ethanol for 20 min, dehydrated in graded ethanol and after the last step of dehydration inserts were placed in the 1:1 mixture of ethanol and Taab 812 (Taab; Aldermaston, Berks, UK) for 10 min at 30°C. Finally, the membranes of the culture inserts with the cells were removed from their support and embedded in Taab 812. Polymerization was performed overnight at 60°C. Ultrathin sections were cut perpendicularly for the membrane using a Leica EM UC6 ultramicrotome (Nussloch, Germany) and picked up on formvar-coated single-slot copper grids. […] Altogether, 105 non-overlapping images from the 3 groups at the same magnification were analyzed for the presence or absence of tight junctions (control group n = 28; PN159 group n = 42; recovery group n = 35).

For `CC(C)C[C@H](NC(=O)[C@H](C)NC(=O)[C@H](CCCCN)NC(=O)[C@H](CC(C)C)NC(=O)[C@H](C)NC(=O)[C@H](CC(C)C)NC(=O)[C@H](CCCCN)NC(=O)[C@H](CC(C)C)NC(=O)[C@H](C)NC(=O)[C@H](CC(C)C)NC(=O)[C@@H](N)CCCCN)C(=O)N[C@@H](CCCCN)C(=O)N[C@@H](C)C(=O)N[C@@H](C)C(=O)N[C@@H](CC(C)C)C(=O)N[C@@H](CCCCN)C(=O)N[C@@H](CC(C)C)C(=O)N[C@@H](C)C(N)=O` [PN159], the “Ultrastructure of epithelial junctions” value (1-day recovery after PN159 10 μM) was “became similar to control cells” and the “Tight junctions by electron microscopy” value (PN159 10 μM) was “no junctions were observed”.
